Test results taken from patent US20190201494A1, “COMPOSITIONS AND METHODS FOR TREATING NICOTINE WITHDRAWAL” (STC UNM, priority 2016, published 2019).
“Also recorded” adds a separate entry of the source.

Legend:
[1] = system: overnight abstinent smokers; assay: Blood measurements: insulin, glucose, C-peptide, non-esterified fatty acids (Example 1); format: in vivo, human
Procedure: Blood measurements: Blood samples were analyzed for measurements of insulin, glucose, C-peptide, and non-esterified fatty acids.
Serum insulin was analyzed on the Immulite 1000 immunoassay system (Siemens Healthcare GmbH, Erlangen, Germany). This is a solid-phase, enzyme-labeled chemiluminescent immunometric assay. The solid phase (bead) was coated with monoclonal murine anti-insulin antibody. The liquid phase consisted of alkaline phosphatase (bovine calf intestine) conjugated to polyclonal sheep anti-insulin antibody and alkaline phosphatase (bovine calf intestine) conjugated to monoclonal murine anti-insulin antibody. The patient sample and the reagent were incubated together with the coated bead for 60 minutes. During this time, insulin in the sample forms the antibody sandwich complex with the monoclonal murine anti-insulin antibody on the bead, enzyme conjugated polyclonal sheep anti-insulin antibody, and enzyme conjugated monoclonal murine anti-insulin antibody in the reagent. Unbound patient sample and enzyme conjugate were then removed by centrifugal washes. Finally, chemiluminescent substrate was added to the test unit containing the bead and the signal is generated in proportion to the bound enzyme.
Serum glucose was performed on the ACE ALERA system (Alfa Wassermann Diagnostic Technologies, S.p.A., Bologna, Italy). An increase in absorbance of NADH is directly proportional to glucose concentration, and was measured bichromatically at 340 nm/378 nm.
Serum C-peptide was performed on the Immulite 1000 immunoassay system (Siemens Healthcare GmbH, Erlangen, Germany). This is a solid-phase, two-site chemiluminescent immunometric assay. The solid phase (bead) is coated with monoclonal murine anti-C-peptide antibody. The liquid phase consists of alkaline phosphatase (bovine calf intestine) conjugated to monoclonal murine anti-C-peptide antibody in buffer. The patient sample and the reagent were incubated together with the coated bead for 30 minutes. During this time, C-peptide in the sample forms the antibody sandwich complex with monoclonal murine anti-C-peptide antibody in the reagent. Unbound patient sample and enzyme conjugate were then removed by centrifugal washes. Finally, chemiluminescent substrate was added to the Test Unit containing the bead and the signal is generated in proportion to the bound enzyme.
Blood samples were collected at 12:20, 13:00, 13:40, and 14:10 and analyzed for non-esterified fatty acids using an AU 480 chemistry analyzer (Beckman Coulter, Inc., Brea, Calif.) using a NEFA-HR(2) kit (Wako Chemicals USA, Inc., Cape Charles, Va.).
Random coefficient models were constructed for analyzing subjective (i.e., craving and mood), blood (insulin, glucose, C-peptide and nonesterified fatty acids) and cardiovascular (blood pressure) measures. For every model, an evaluation of non-linear term was performed, and, if significance was detected, that polynomial term for time was included in the model. Treatment, time and treatment by time interaction were included as fixed effects. Time nested within subjects was included as a random effect. If an interaction was detected, post hoc comparisons were performed comparing treatment groups at each time point. Cortisol was log-transformed for the purpose of normalizing distribution. The summary measure for cortisol analysis was peak change from baseline. […] Significance values are reported as detected; no adjustments were made for multiple comparisons.

[2] = system: overnight abstinent smokers; assay: Positive and Negative Affect Schedule (PANAS) mood ratings (Example 1); format: in vivo, human
Source text: Intranasal spray administration of insulin or placebo occurred at 12:30 PM. The purpose of the spacing time between morning check-in and nasal spray administration was stabilization of postprandial insulin levels. In a randomized fashion, the study nurse administered one spray in each nostril every three minutes for the total of six sprays of either insulin or placebo. Instructions to perform the Trier Social Stress Test were given at 13:20, and speech delivery occurred 13:30. Briefly, the Trier Social Stress Test^13 is a standardized laboratory stressor consisting of a free speech and a mental arithmetic task in front of an audience. Participants were introduced to the task and instructed to prepare a 5-minute presentation in which they were to promote their candidacy for a job. The speech was delivered after a 10-minute preparation period. Thereafter, participants were introduced to the mental arithmetic task, also standing in front of the audience and a self-projecting television screen. Subjects were required to count backwards from 2023 in steps of 17 as fast and accurately as possible for five minutes; upon making a mistake, subjects were asked to stop and start again at 2023. At every post-stress timepoint (13:40, 13:50, 14:00, 14:10, and 14:40), study nurses checked POC glucose to ensure euglycemia. After the last time point at 14:40, subjects ate a snack, had their glucose level checked, received another nares exam, and were discharged from the clinic at 16:00.
Subjective measures included the Questionnaire on Smoking Urges (QSU) Brief Form and Positive and Negative Affect Schedule (PANAS). Urges to smoke were rated using the 10-item QSU Brief Form^14 that consists of 10-questions. The answers are scored from 1 (strongly disagree) to 7 (strongly agree). These questions are the basis for the two factor derived subscales. Factor 1 subscale reflects a strong desire and intention to smoke with smoking perceived as rewarding. Factor 2 subscale reflects an anticipation of relief from negative affect with an urgent desire to smoke. Study data analysis included evaluations of both factors. The PANAS (Watson et al., 1988. J Pers Soc Psychol 54(6):1063-1070) consists of 10 negative and 10 positive mood terms rated on five-point Likert-type response scales from 1 (very slightly or not at all) to 5 (extremely). Positive and negative scale scores each range between 10 and 50. The PANAS was chosen as a composite measure of self-reported positive and negative affect. Subjective measures were taken at 08:30, 12:20, 13:00, 13:40, 13:50, 14:00, 14:10 and 14:40.
Random coefficient models were constructed for analyzing subjective (i.e., craving and mood), blood (insulin, glucose, C-peptide and nonesterified fatty acids) and cardiovascular (blood pressure) measures. For every model, an evaluation of non-linear term was performed, and, if significance was detected, that polynomial term for time was included in the model. Treatment, time and treatment by time interaction were included as fixed effects. Time nested within subjects was included as a random effect. If an interaction was detected, post hoc comparisons were performed comparing treatment groups at each time point. Cortisol was log-transformed for the purpose of normalizing distribution. The summary measure for cortisol analysis was peak change from baseline. Baseline cortisol was the 8:30 AM measurement, and time period for determination of peak was between 13:40 and 14:40. This time period reflects any cortisol change that resulted from the psychosocial stress procedure, with speech occurring from 13:30 to 13:35 and math from 13:35 to 13:40. Group differences were compared using analysis of variance (ANOVA). Significance values are reported as detected; no adjustments were made for multiple comparisons.

intranasal insulin: bulk human Regular insulin (U100 Novolin R, Novo Nordisk US), 100 IU/ml, six nasal sprays delivering 60 IU
Glucose, effect of treatment ([1]; 60 IU intranasal vs placebo): did not differ; also recorded: subjects remained well within euglycemic range; also recorded: minor decline in plasma glucose concentrations | Serum (circulating) insulin levels, effect of treatment ([1]; 60 IU intranasal vs placebo): did not differ; also recorded: no detection of treatment effects; also recorded: no significant changes in circulating insulin | Serum insulin, treatment×time interaction, b ([1]; SE(b)=0.01, z=−0.37, p=0.71, non-significant): −0.005 | Glucose, treatment×time interaction, b ([1]; SE(b)=0.02, z=2.60, p≤0.01): 0.05 | Glucose, treatment, b ([1]; SE(b)=2.55, z=−1.06, p=0.28): −2.72 | Negative mood ratings (PANAS), effect of treatment ([2]; 60 IU vs placebo): the effect of treatment was not significant | Positive mood ratings (PANAS), effect of treatment ([2]; 60 IU vs placebo): no effect | Negative mood ratings (PANAS), effect of treatment ([2]; 60 IU vs placebo, listed as Intranasal insulin): no effect | Negative mood (PANAS), treatment×time interaction, b ([2]; SE(b)=0.01, z=0.10, p=0.92, not significant): 0.001 | Positive mood (PANAS), treatment×time interaction, b ([2]; SE(b)=0.017, z=−0.97, p=0.33, not significant): −0.01 | Negative mood (PANAS), effect of treatment, b ([2]; SE(b)=1.30, z=1.07, p=0.28, not significant): 1.38 | Positive mood (PANAS), treatment, b ([2]; SE(b)=2.47, z=−0.19, p=0.84, not significant): −0.47
